Results: publication PMC6458995, “MAP4K4 Inhibition Promotes Survival of Human Stem Cell-Derived Cardiomyocytes and Reduces Infarct Size In Vivo” (Cell Stem Cell, 2019)

Columns and labels:
infarct size = experiment: Myocardial infarction (ischemia-reperfusion), infarct size by TTC/Evans blue; format: in vivo, CD-1 female mice; conditions: 50 mg kg^−1 twice by gavage 10 h apart
vCor.4U hiPSC-CMs = experiment: Calcium transients (FLIPR Tetra, EarlyTox Cardiotoxicity dye); format: cell-based, human
Experimental: Calcium transients in hiPSC-CMs were assessed using FLIPR Tetra instrumentation and Early Tox Cardiotoxicity kits (Molecular Devices). vCor.4U cells were subjected to graded concentrations of menadione and the MAP4K4 inhibitors as described for the viability assays. Compound concentrations and time course are denoted in the figure and figure legend. Vehicle controls were used throughout. Cells were incubated for 2-3 hr at 37°C in 5% CO2, using 3 μL well^-1 of EarlyTox Cardiotoxicity Kit concentrate as the fluorescent calcium indicator dye. Plates were then removed from the incubator and allowed to reach room temperature. Intracellular calcium oscillations were monitored using a FLIPR Tetra system with excitation LED bank 470-495 nm and emission filter set 515-575 nm (Molecular Devices). Fluorescence intensity signals were acquired for 600 reads at 1.2 ms intervals. Beat frequency, median peak height, median peak width and total peak area were calculated and compared with the baseline control and with menadione alone. Protection of calcium cycling by DMX-4804 was confirmed in 3 independent experiments with overlapping conditions, and results are shown for a full dose-response study, analyzing 4 wells for each point.

cardiac MAP4K4 = cardiac MAP4K4 (Mus musculus, UniProt P97820); experiment: Target engagement in vivo (desthiobiotin-ATP probe on cardiac lysates after oral dosing); conditions: dose-response and time course
VEGFR = experiment: HTRF Transcreener ADP kinase assay; format: biochemical, human
vCor.4U cells as hEHT = experiment: 3D human engineered heart tissue (hEHT) challenged with menadione; format: cell-based
Experimental: Fibrin-based hEHTs were generated between flexible silicone posts as described ([Breckwoldt et al., 2017], [Hansen et al., 2010]), with minor modifications. 1.8 mL well^-1 of 2% agarose in PBS was pipetted into 24-well plates, Teflon spacers (EHT Technologies) were placed inside each well as a casting mold, and the agarose was left to set for 15 min. The spacers were removed from each well, and a pair of polydimethylsiloxane posts was inserted from above (EHT Technologies: Young’s modulus […], length 10 mm, radius, 0.5 mm). VCor.4U cells (4 × 10^6) were resuspended in 400 μL of master mix (340 μL DMEM (Biochrom), 10% heat-inactivated fetal calf serum (GIBCO), 2 mM glutamine (Life Technnologies), 1% penicillin/streptomycin (GIBCO); 60 μL 2x DMEM (GIBCO), 20% horse serum (GIBCO), 2% penicillin/streptomycin). Bovine fibrinogen (Sigma) was added (10 μL: 200 mg mL^-1, 95 μg mL^-1 aprotinin (Sigma), 0.9% NaCl), and 100 μL aliquots were transferred to PCR tubes containing 3 μL of 100 U ml^-1 thrombin (Biopur) in 60% PBS. Cell suspensions then were immediately transferred to the agarose casting molds. After 90 min to allow solidification, 300 μL well^-1 of EHT medium was added (DMEM, 10% horse serum, 0.1% human insulin (Sigma), 0.1% aprotinin), to hydrate the gels for a further 50 min. The hEHTs were then transferred to fresh 24-well plates with 1.5 mL well^-1 of EHT medium, which was replaced every Monday, Wednesday, and Friday for 12 d. Auxotonic force measurements were performed daily by optical tracking ([Hansen et al., 2010]) and calculated on the basis of post deflection distance (δ), post length (L), post radius (R), and the elastic modulus (E), using the formula F = 3πER^4δ4L^-3 ([Schaaf et al., 2011]) and the indicated post parameters. Beating rate and force generation increased between d 5 and 10 and were stable for at least 7 d thereafter. On day 12, the hEHTs were challenged for 24 hr with menadione, in the absence or presence of DMX-5804. Medium, including DMX-5804, was replenished daily. […]

hCaV1.2 = target: T1, hCaV1.2 (Homo sapiens, UniProt Q13936); experiment: Ion channel safety screening (Patchliner whole-cell patch clamp); format: cell-based
T1 construct: HEK293 cells stably expressing full length hCaV1.2; host or cells: HEK293
T1 sequence (Q13936 whole entry): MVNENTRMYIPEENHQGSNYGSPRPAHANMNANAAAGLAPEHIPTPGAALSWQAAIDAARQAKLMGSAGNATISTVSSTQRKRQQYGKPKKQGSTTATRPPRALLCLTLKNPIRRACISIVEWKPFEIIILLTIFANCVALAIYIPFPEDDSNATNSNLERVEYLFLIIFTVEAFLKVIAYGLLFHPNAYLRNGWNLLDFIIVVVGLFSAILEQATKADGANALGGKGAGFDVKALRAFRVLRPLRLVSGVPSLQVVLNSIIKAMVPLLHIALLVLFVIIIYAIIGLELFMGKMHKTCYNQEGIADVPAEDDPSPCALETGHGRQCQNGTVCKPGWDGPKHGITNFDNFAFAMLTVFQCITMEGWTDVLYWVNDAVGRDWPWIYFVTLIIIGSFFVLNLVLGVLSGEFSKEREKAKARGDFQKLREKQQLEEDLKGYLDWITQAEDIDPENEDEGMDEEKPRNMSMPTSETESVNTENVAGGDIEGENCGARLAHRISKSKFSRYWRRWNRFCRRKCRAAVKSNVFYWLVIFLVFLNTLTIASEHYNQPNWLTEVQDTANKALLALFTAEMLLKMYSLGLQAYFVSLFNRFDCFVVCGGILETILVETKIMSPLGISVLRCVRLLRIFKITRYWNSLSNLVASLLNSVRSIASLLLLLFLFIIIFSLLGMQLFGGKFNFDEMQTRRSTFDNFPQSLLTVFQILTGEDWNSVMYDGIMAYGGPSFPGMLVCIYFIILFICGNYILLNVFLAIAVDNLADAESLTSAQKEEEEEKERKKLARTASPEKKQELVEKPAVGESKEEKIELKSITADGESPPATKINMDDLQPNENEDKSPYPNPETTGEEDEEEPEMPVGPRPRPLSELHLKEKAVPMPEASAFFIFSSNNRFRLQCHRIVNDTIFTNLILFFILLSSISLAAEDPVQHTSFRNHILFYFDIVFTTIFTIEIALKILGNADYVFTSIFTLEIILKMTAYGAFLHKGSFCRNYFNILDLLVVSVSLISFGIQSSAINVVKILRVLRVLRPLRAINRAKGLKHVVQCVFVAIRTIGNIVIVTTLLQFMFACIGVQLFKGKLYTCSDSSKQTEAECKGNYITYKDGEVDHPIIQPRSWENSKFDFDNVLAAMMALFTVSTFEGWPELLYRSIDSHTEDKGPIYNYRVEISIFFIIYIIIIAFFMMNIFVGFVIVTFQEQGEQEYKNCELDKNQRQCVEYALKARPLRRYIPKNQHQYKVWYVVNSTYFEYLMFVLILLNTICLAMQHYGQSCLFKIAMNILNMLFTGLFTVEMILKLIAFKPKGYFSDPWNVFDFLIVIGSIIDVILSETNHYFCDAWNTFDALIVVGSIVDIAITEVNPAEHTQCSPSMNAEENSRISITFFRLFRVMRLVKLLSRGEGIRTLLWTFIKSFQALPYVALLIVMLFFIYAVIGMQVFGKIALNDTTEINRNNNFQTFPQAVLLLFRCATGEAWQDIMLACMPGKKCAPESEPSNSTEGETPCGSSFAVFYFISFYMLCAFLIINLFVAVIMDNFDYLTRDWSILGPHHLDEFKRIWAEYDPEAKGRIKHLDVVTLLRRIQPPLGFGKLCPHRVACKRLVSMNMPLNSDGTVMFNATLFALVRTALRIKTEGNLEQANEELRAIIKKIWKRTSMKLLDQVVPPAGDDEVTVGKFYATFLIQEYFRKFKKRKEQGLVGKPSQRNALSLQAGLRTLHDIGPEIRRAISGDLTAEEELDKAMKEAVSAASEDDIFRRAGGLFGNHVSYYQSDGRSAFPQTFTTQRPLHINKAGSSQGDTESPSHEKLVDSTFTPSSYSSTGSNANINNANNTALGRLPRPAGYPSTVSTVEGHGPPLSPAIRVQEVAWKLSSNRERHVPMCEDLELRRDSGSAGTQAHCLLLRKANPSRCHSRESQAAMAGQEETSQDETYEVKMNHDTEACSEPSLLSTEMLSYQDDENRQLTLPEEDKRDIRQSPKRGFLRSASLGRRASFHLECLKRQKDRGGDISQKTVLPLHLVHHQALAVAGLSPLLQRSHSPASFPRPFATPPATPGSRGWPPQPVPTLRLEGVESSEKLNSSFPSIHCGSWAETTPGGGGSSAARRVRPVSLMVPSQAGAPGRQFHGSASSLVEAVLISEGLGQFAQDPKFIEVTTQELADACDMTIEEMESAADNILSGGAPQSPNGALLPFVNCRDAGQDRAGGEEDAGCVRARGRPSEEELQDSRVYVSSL
T1 sequence (Q08289 whole entry partner): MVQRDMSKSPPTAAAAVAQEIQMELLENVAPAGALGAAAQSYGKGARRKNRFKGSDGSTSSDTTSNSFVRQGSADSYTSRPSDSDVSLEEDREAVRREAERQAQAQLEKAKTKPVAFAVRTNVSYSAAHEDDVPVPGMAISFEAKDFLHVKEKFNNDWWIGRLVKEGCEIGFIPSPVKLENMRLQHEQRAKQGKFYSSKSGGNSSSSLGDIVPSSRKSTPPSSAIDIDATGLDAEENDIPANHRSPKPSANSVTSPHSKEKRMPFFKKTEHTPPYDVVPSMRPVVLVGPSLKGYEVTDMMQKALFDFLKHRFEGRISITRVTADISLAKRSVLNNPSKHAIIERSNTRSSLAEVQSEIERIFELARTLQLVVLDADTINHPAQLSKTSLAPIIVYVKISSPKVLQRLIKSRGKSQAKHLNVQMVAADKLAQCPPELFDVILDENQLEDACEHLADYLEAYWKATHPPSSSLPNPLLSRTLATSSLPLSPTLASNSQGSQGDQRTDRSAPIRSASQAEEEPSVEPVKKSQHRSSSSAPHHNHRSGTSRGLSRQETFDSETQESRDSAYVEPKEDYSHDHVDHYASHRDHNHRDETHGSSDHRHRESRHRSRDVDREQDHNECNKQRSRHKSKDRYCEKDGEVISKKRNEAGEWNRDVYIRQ
T1 sequence (P54289 25-956 partner limits assumed): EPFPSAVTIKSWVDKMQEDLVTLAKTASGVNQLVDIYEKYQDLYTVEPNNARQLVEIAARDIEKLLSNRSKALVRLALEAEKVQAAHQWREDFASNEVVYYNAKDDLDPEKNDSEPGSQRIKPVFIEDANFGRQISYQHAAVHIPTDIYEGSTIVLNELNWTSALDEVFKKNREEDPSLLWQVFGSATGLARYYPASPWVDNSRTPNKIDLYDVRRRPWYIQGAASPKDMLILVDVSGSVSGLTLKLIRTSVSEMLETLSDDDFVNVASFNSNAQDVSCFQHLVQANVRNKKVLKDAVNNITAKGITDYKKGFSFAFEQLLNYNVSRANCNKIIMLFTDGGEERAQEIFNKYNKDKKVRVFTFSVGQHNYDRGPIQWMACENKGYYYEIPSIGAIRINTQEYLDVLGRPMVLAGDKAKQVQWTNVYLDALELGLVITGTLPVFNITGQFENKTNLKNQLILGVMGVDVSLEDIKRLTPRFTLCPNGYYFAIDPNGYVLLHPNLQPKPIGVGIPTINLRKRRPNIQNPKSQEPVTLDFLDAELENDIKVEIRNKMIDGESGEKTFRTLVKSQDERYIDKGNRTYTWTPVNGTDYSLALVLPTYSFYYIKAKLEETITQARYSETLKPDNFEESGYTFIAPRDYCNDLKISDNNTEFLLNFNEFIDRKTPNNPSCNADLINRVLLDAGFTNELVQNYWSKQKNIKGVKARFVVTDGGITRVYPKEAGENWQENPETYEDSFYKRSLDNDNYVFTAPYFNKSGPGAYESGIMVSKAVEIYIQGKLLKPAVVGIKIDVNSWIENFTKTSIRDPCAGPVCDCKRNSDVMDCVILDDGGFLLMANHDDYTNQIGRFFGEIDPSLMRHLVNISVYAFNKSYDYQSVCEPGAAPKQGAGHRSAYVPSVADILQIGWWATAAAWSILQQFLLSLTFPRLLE
T1 sequence (P54289 957-1103 partner limits assumed): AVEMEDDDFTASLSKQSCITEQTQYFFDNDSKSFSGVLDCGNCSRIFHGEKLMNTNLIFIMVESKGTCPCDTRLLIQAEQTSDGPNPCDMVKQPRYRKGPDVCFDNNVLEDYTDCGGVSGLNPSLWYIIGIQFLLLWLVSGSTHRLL
Experimental: (§1) Electrophysiological recordings (Apconix) were performed using a Chinese Hamster Ovary cell line stably expressing full length hERG or hNaV1.5, or HEK293 cells stably expressing full length hCaV1.2. Single cell currents were measured in whole-cell configuration at 21-23°C using a Patchliner (Nanion Technologies). The internal solution for hERG contained (mM): 120 KF, 20 KCl, 10EGTA, 10 HEPES (pH 7.3). The internal solution for hNaV1.5 and CaV1.2 contained (mM): 140 CsF, 1 EGTA, 10 NaCl, 10 HEPES (pH 7.3). […] Late Na^+ currents were activated with 50 μM veratridine. Cells were clamped at a holding potential of −80 mV before a depolarising step appropriate for each channel. Currents measured from the step were referenced to the holding current. Compounds were then incubated for 2-3 min prior to a second measurement using an identical pulse train.

hNaV1.5 = target: T2, hNaV1.5 (Homo sapiens, UniProt Q14524); experiment: as above; format: cell-based
T2 construct: stably expressing full length hERG or hNaV1.5; host or cells: Chinese Hamster Ovary cell line
Experimental: as §1

hERG = target: T3, hERG (Homo sapiens, UniProt Q12809); experiment: as above; format: cell-based
T3 construct: stably expressing full length hERG; host or cells: Chinese Hamster Ovary cell line
T3 sequence (Q12809 whole entry): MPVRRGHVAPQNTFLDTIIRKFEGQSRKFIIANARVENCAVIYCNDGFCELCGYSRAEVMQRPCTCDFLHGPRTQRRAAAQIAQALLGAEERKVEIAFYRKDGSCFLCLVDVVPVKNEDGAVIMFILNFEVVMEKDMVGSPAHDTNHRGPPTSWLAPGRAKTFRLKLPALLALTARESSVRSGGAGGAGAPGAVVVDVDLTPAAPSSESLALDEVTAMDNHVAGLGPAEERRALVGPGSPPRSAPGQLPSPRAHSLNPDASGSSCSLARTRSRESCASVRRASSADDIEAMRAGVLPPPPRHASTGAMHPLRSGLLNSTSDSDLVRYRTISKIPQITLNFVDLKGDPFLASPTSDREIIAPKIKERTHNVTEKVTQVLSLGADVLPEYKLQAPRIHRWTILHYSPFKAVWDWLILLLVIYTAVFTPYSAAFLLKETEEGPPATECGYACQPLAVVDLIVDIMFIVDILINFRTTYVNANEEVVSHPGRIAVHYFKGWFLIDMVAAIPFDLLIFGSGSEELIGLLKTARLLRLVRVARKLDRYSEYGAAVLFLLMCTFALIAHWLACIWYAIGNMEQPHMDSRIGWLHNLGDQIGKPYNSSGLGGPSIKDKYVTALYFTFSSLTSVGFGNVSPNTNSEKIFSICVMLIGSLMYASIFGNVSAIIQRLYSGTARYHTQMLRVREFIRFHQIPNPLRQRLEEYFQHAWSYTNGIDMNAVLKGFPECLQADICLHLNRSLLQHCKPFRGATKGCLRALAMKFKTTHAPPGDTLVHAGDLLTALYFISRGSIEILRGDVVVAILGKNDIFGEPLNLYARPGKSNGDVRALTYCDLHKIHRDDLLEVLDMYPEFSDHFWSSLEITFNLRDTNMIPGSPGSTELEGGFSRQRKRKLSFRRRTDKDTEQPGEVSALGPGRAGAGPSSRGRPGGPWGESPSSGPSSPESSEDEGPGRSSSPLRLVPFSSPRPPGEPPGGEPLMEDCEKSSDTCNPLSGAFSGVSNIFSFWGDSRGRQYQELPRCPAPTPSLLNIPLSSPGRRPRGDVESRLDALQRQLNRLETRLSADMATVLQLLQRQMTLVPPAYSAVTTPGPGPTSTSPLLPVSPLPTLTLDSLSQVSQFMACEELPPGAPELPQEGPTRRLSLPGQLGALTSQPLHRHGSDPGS
Experimental: as §1

141 human kinases = experiment: Kinase selectivity profiling, Dundee Premier Screen, whole panel; format: biochemical; conditions: number of kinases; compounds at 1 μM
Experimental: Kinase selectivity profiling was performed by the International Centre for Kinase Profiling, MRC Protein Phosphorylation and Ubiquitylation Unit (141 kinases; Premier Screen, http://www.kinase-screen.mrc.ac.uk), using a [γ-^33P]ATP filter binding assay ([Bain et al., 2007]). Compounds were screened at 1 μM. For key hits, pIC50 values were then determined by HTRF as above. More complete kinome profiling was performed by Reaction Biology (376 kinases). Stability in mouse and human liver microsomes was determined by Cyprotex.

| Structure (SMILES) | infarct size as a proportion of the area at ischemic risk (infarct size; post-injury treatment (1 h after reperfusion), vehicle 55.1%) [%] | infarct size as a proportion of the area at ischemic risk (infarct size; pre-injury treatment (20 min prior to ischemia), vehicle 48.5%) [%] | EC50 (vCor.4U hiPSC-CMs; Homo sapiens, calcium cycling, menadione, vCor.4U, read-out: concentration preserving ∼50% of peak area and peak height) [µM] | duration for which protection of calcium cycling was maintained (vCor.4U hiPSC-CMs; menadione present throughout) | spontaneous calcium cycling after hypoxia-reoxygenation (vCor.4U hiPSC-CMs; vCor.4U, 8 hr after hypoxia-reoxygenation, 10 μM) | effect on baseline calcium cycling (vCor.4U hiPSC-CMs; vCor.4U, no menadione) | inhibition of ATP binding to cardiac MAP4K4 in vivo (cardiac MAP4K4) | Fold Selectivity (VEGFR; VEGFR versus MAP4K4) | pIC50 (VEGFR; VEGFR, HTRF Transcreener ADP assay) | DMX-5804 vs F1386-0303 (VEGFR; ratio of fold selectivity, VEGFR) | cell death from menadione in hEHT (vCor.4U cells as hEHT; 10 μM, first 24 h) | adverse effect on cardiomyocyte viability, rhythmicity, calcium handling, mitochondrial function, force generation (vCor.4U cells as hEHT; 2D culture or hEHT) | rescue of contractile function in hEHT (vCor.4U cells as hEHT; 3 or 10 μM, 60 min and 24 h, not later) | off-target effect (hCaV1.2; cloned human hCaV1.2) | IC50 (hCaV1.2; hCaV1.2, HEK cells, 4-parameter logistic fit) [µM] | off-target effect (hNaV1.5; cloned human hNaV1.5) | IC50 (hNaV1.5; hNaV1.5, CHO cells, 4-parameter logistic fit) [µM] | off-target effect (hERG; cloned human hERG) | IC50 (hERG; hERG, CHO cells, 4-parameter logistic fit) [µM] | off-target effects among 141 human kinases (141 human kinases) |
| --- | --- | --- | --- | --- | --- | --- | --- | --- | --- | --- | --- | --- | --- | --- | --- | --- | --- | --- | --- | --- |
| COCCOc1ccc(-c2cn(-c3ccccc3)c3nc[nH]c(=O)c23)cc1 [DMX-5804, 5-[4-(2-methoxy-ethoxy)-phenyl]-7-phenyl-3,7-dihydro-pyrrolo[2,3-d]pyrimidin-4-one] | 25.6 | 20.9 | 0.5 to 2 | up to 96 h | protection was conferred | no effect | substantiated | 675 | 5.72 | 12.27 | suppressed | no adverse effect | virtually complete | no off-target effect | > 30 | no off-target effect | > 30 | no off-target effect | > 30 |  |
| Oc1ncnc2c1c(-c1ccccc1)cn2-c1ccccc1 [F1386-0303, 5,7-diphenyl-7H-pyrrolo[2,3-d]pyrimidin-4-ol] |  |  |  |  |  |  |  |  |  |  |  |  |  |  |  |  |  |  |  | 5 |
